# Columns and labels:
# [1] = system: A2780/Tax ovarian, Taxol resistant; assay: In vitro cytotoxicity (MTS assay), A2780/Tax; type: cell-based; details: Homo sapiens, 72 h
# Protocol: (§1) In vitro cytotoxicity was assessed in human carcinoma cells by the MTS (3-(4,5-dimethylthiazol-2-yl)-5-(3-carboxymethoxyphenyl)-2-(4-sulphenyl)-2H-tetrazolium, inner salt) assay (5). Cells were plated at 4,000 cell/well in 96 well microtiter plates and 24 hours later drugs were added and serial diluted. The cells were incubated at 37° form 72 hours at which time the tetrazolium dye, MTS at 333 μg/ml (final concentration),in combination with the electron coupling agent phenazine methosulfate at 25 μM (final concentration) was added. A dehydrogenase enzyme in live cells reduces the MTS to a form that absorbs light at 492 nm which can be quantitated spectrophotometrically. The greater the absorbance the greater the number of live cells. The results are expressed as an IC50, which is the drug concentration required to inhibit cell proliferation (i.e. absorbance at 492 nm) to 50% of that of untreated control cells.
# LX-1 lung, sensitive = assay: In vitro cytotoxicity (MTS assay), LX-1; type: cell-based; details: Homo sapiens; LX-1, 72 h
# Protocol: as §1
# Solubility = type: physicochemical
# [2] = system: HCT116/Topo colon, resistant to etoposide; assay: In vitro cytotoxicity (MTS assay), HCT116/Topo; type: cell-based; details: Homo sapiens, HCT-116, 72 h
# Protocol: as §1
# [3] = system: SKBR3 breast, estradiol-independent; assay: In vitro cytotoxicity (MTS assay), SKBR3; type: cell-based; details: Homo sapiens, SK-BR-3; SKBR3, 72 h
# Protocol: as §1
# LNCaP cells = assay: Apoptosis determination (TUNEL assay), LNCaP; type: cell-based, human; details: for % of LNCaP Cells in Apoptosis: 24 h treatment; for induction of apoptosis: testosterone sensitive (LNCaP) cells
# Protocol: (§2) Cells were plated, incubated overnight, treated with compound for 24 hours then harvested by trypsinization. For cell cycle analysis cells were trypsinized, permeated, stained with 50 ug/ml propidium iodide and analyzed by FACS. For apoptosis evaluation (TUNEL assay) cells were permeated and reacted with TdT and fluoresceinated dUTP for 3 hours following the procedure recommended by the APO-Direct kit (Pharmingen).
# [4] = system: PC3 prostate, testosterone independent; assay: In vitro cytotoxicity (MTS assay), PC3; type: cell-based; details: Homo sapiens; PC3, 72 h
# Protocol: as §1
# [5] = system: A2780/DDP ovarian, mutp53/bcl2+; assay: In vitro cytotoxicity (MTS assay), A2780/DDP; type: cell-based; details: Homo sapiens, 72 h
# Protocol: as §1
# A2780 ovarian, parental = assay: In vitro cytotoxicity (MTS assay), A2780; type: cell-based; details: Homo sapiens, A2780, 72 h
# Protocol: as §1
# [6] = system: HCT116/mdr+ colon, overexpresses Mdr+; assay: In vitro cytotoxicity (MTS assay), HCT116/mdr+; type: cell-based; details: Homo sapiens, HCT-116, 72 h
# Protocol: as §1
# [7] = system: tubulin or topoisomerase II; assay: Mechanism of action: tubulin or topoisomerase II
# [8] = system: MCF-7 breast, estradiol sensitive; assay: In vitro cytotoxicity (MTS assay), MCF-7; type: cell-based; details: Homo sapiens, MCF7; MCF-7, 72 h
# Protocol: as §1
# A2780 cells = assay: Apoptosis determination (TUNEL assay), A2780; type: cell-based, human; details: for % of A2780 Cells in Apoptosis: 24 h treatment; for induction of apoptosis: (A2780)
# Protocol: as §2
# p53, mdr or bcl2 = assay: Mechanism of action: mediation by p53, mdr or bcl2; type: cell-based
# HCT116 colon, parental = assay: In vitro cytotoxicity (MTS assay), HCT116; type: cell-based; details: Homo sapiens, HCT-116; HCT116, 72 h
# Protocol: as §1
# [9] = system: LNCaP prostate, testosterone sensitive; assay: In vitro cytotoxicity (MTS assay), LNCaP; type: cell-based, human; details: for IC50: Homo sapiens, LNCaP, 72 h
# Protocol: as §1
# human tumor cell lines = assay: In vitro cytotoxicity against several human tumor cell lines; type: cell-based
# Protocol: as §1
structure (smiles),measurement,setting,value
CC1(C)C=Cc2c(ccc3c2[N+]([O-])=C2C(C)(C)C4CC56CCCN5C(=O)C4(NC6=O)C4N5C(=O)C67CCCN6C(=O)C56C(C7)C(C)(C)c5c(c7ccc8c(c7n5O)C=CC(C)(C)O8)C6C234)O1 (stereo not shown) [Stephacidin B],IC50,[1],260 nM
same,IC50,"LX-1 lung, sensitive",380 nM
same,Solubility,Solubility; hexane,insoluble
same,Solubility,"Solubility; methanol, chloroform, acetone, acetonitrile, dimethyl sulfoxide, acetonitrile/methanol (1:1)",Soluble
same,Solubility,Solubility; water,insoluble
same,IC50,[2],0.42 µM
same,IC50,[3],320 nM
same,% of LNCaP Cells in Apoptosis,LNCaP cells; 0.1 x 72 hour cytotoxic IC50,0.02%
same,% of LNCaP Cells in Apoptosis,LNCaP cells; 1 x 72 hour cytotoxic IC50,0.00%
same,% of LNCaP Cells in Apoptosis,LNCaP cells; 5 x 72 hour cytotoxic IC50,0.05%
same,% of LNCaP Cells in Apoptosis,LNCaP cells; 10 x 72 hour cytotoxic IC50,4.52%
same,% of LNCaP Cells in Apoptosis,LNCaP cells; 20 x 72 hour cytotoxic IC50,11.13%
same,induction of apoptosis,LNCaP cells,potent inducers of apoptosis
same,IC50,[4],370 nM
same,IC50,[5],0.43 µM
same,IC50,"A2780 ovarian, parental",330 nM
same,IC50,[6],0.46 µM
same,tubulin or topoisomerase II mediated,[7],not tubulin or topoisomerase II mediated
same,IC50,[8],270 nM
same,% of A2780 Cells in Apoptosis,A2780 cells; 0.1 x 72 hour cytotoxic IC50,.5%
same,% of A2780 Cells in Apoptosis,A2780 cells; 1 x 72 hour cytotoxic IC50,.2%
same,% of A2780 Cells in Apoptosis,A2780 cells; 5 x 72 hour cytotoxic IC50,1.0%
same,% of A2780 Cells in Apoptosis,A2780 cells; 10 x 72 hour cytotoxic IC50,33%
same,% of A2780 Cells in Apoptosis,A2780 cells; 20 x 72 hour cytotoxic IC50,5%
same,induction of apoptosis,A2780 cells,potent inducers of apoptosis
same,"effects mediated by p53, mdr or bcl2","p53, mdr or bcl2","not mediated by p53, mdr or bcl2"
same,IC50,"HCT116 colon, parental",460 nM
same,IC50,[9],60 nM
same,selectivity in testosterone dependent LNCaP cells,[9]; LNCaP versus other cell lines,Good selectivity
CC1(C)C=Cc2c(ccc3c4c([nH]c23)C(C)(C)C2CC35CCCN3C(=O)C2(C4)NC5=O)O1 (stereo not shown) [Stephacidin A],IC50,[1],3600 nM
same,in vivo criteria for acceptable activity,human tumor cell lines; potency judged against applicant's criteria,within our in vivo criteria for acceptable activity
same,fold less potent,"human tumor cell lines; relative potency in vitro, versus the other stephacidin",10 fold
same,in vitro cytotoxicity,human tumor cell lines; several human tumor cell lines (Table 3),potent in vitro cytotoxicity
same,IC50,"LX-1 lung, sensitive",4220 nM
same,IC50,[2],13.1 µM
same,IC50,[3],2150 nM
same,% of LNCaP Cells in Apoptosis,LNCaP cells; 0.1 x 72 hour cytotoxic IC50,0.02%
same,% of LNCaP Cells in Apoptosis,LNCaP cells; 1 x 72 hour cytotoxic IC50,0.00%
same,% of LNCaP Cells in Apoptosis,LNCaP cells; 5 x 72 hour cytotoxic IC50,0.15%
same,% of LNCaP Cells in Apoptosis,LNCaP cells; 10 x 72 hour cytotoxic IC50,5.75%
same,% of LNCaP Cells in Apoptosis,LNCaP cells; 20 x 72 hour cytotoxic IC50,11.81%
same,induction of apoptosis,LNCaP cells,potent inducers of apoptosis
same,IC50,[4],2100 nM
same,IC50,[5],6.8 µM
same,IC50,"A2780 ovarian, parental",4000 nM
same,IC50,[6],6.7 µM
same,IC50,[8],4200 nM
same,% of A2780 Cells in Apoptosis,A2780 cells; 0.1 x 72 hour cytotoxic IC50,1%
same,% of A2780 Cells in Apoptosis,A2780 cells; 1 x 72 hour cytotoxic IC50,.8%
same,% of A2780 Cells in Apoptosis,A2780 cells; 5 x 72 hour cytotoxic IC50,21%
same,% of A2780 Cells in Apoptosis,A2780 cells; 10 x 72 hour cytotoxic IC50,14%
same,% of A2780 Cells in Apoptosis,A2780 cells; 20 x 72 hour cytotoxic IC50,15%
same,induction of apoptosis,A2780 cells,potent inducers of apoptosis
same,IC50,"HCT116 colon, parental",2100 nM
same,IC50,[9],1000 nM

# Source: patent US6291461A, “Stephacidin antitumor antibiotics” (Bristol-Myers Squibb Company, priority 1999, dated 2001)
